Species on record: Oryctolagus cuniculus
Experiment: Inhibitory concentration against peroxidation of rabbits red blood cell (RBC) membrane ghost induced by gamma-ray irradiation
Type: functional
Details: light or radiation study

IC50 | SMILES
8 µM | CC(=O)/C=C/c1cc(C(C)(C)C)ccc1O
2.19 µM | CC(=O)/C=C/c1cccc(C(C)(C)C)c1O
37.8 µM | CC(=O)/C=C/c1ccccc1O
2.52 µM | COc1cc(/C=C/C(C)=O)cc(OC)c1O
3.98 µM | COc1ccc(O)c(/C=C/C(C)=O)c1
8 µM | CC(=O)/C=C/c1cc(C)ccc1O
6.32 µM | CC(=O)/C=C/c1cc(C)c(O)c(C)c1
3.31 µM | CCOc1cccc(/C=C/C(C)=O)c1O
2.34 µM | CC(=O)/C=C/c1ccc(O)c(O)c1
66.1 µM | CC(=O)/C=C/c1ccc(O)cc1
1.96 µM | CC(=O)/C=C/c1cccc(O)c1O
3.25 µM | COc1cccc(/C=C/C(C)=O)c1O
35.5 µM | COc1ccc(/C=C/C(C)=O)c(O)c1
51.2 µM | CC(=O)/C=C/c1cccc(F)c1O
3.63 µM | CC(=O)/C=C/c1cccc(C)c1O
1.43 µM | CC(=O)/C=C/c1cc(O)ccc1O
11.5 µM | COc1cc(/C=C/C(C)=O)ccc1O [DEHYDROZINGERONE]
60.3 µM | CC(=O)/C=C/c1cc(Cl)ccc1O

Source: ChEMBL document CHEMBL1139592, “Quantitative structure-activity relationship studies for antioxidant hydroxybenzalacetones by quantum chemical- and 3-D-QSAR(CoMFA) analyses” (Bioorg Med Chem Lett, 2005)
